Consider ten molecules from US8642592B2, “Oxo-heterocyclically substituted alkyl carboxylic acids and use thereof” (Bayer Intellectual Property GmbH, priority 2009, dated 2014).

Structures are written as SMILES.

Assay [1] addresses T1, soluble guanylate cyclase (sGC) (Rattus norvegicus, UniProt P20595).
T1 construct: made in house; host or cells: baculovirus/Sf9 insect cells
T1 sequence (P20595 1-619): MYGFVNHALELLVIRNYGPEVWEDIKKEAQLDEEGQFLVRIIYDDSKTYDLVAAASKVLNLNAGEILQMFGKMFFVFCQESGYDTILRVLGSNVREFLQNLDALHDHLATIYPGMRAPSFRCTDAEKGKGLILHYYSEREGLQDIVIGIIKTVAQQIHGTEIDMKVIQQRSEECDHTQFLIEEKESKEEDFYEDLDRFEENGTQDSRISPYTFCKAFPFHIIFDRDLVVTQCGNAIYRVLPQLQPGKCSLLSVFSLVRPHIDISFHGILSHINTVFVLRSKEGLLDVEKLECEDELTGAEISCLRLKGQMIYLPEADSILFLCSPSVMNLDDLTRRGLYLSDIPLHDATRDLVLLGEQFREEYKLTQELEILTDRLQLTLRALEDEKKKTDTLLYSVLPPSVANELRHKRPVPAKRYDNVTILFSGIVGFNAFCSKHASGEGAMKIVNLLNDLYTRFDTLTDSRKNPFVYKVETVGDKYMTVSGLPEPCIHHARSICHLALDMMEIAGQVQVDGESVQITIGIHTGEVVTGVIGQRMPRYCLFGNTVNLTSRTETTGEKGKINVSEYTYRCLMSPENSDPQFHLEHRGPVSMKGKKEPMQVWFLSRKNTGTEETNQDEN
T1 sequence (P19686 1-690 partner): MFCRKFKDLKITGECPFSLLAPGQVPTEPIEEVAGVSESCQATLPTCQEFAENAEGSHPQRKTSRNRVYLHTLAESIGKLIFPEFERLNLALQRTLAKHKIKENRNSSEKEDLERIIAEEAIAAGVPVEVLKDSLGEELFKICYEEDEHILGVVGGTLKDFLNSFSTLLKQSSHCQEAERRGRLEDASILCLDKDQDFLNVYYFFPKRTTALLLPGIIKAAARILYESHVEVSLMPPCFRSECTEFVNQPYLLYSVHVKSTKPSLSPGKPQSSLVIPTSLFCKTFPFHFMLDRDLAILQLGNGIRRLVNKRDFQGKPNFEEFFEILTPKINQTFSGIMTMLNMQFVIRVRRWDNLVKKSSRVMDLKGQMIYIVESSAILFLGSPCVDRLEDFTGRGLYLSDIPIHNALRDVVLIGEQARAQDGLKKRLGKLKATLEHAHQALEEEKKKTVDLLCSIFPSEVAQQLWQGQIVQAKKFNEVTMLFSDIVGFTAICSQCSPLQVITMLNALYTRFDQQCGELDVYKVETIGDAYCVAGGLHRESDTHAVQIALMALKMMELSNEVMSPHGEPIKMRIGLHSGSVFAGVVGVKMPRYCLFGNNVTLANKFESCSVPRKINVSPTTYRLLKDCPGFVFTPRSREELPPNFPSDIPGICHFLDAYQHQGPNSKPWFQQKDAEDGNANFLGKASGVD
Nature of the assay: Stimulation of sGC enzyme activity (PPi/luciferase detection). In kind it is biochemical. The following applies: sGC enzyme in vitro; for EC50: read-out: EC50 (concentration at 50% of maximum efficacy), activating action at the sGC enzyme. The method, then: Soluble guanylate cyclase (sGC) converts on stimulation GTP into cGMP and pyrophosphate (PPi). PPi is detected with the aid of the assay described below. The signal produced in the assay increases as the reaction progresses and serves as a measure of the sGC enzyme activity under the given stimulation.
To carry out the assay, 29 μl of enzyme solution [0-10 nM soluble guanylate cyclase (prepared according to Honicka et al., J. Mol. Med. 77, 14-23 (1999)) in 50 mM TEA, 2 mM MgCl2, 0.1% BSA (fraction V), 0.005% Brij®, pH 7.5] are initially introduced into a microplate, and 1 μl of the substance to be tested (as a serially diluted solution in DMSO) is added. The mixture is incubated at room temperature for 10 min. Then 20 μl of detection mix [1.2 nM Firefly Luciferase (Photinus pyralis luciferase, Promega), 29 μM dehydroluciferin (prepared according to Bitler & McElroy, Arch. Biochem. Biophys. 72, 358 (1957)), 122 μM luciferin (Promega), 153 μM ATP (Sigma) and 0.4 mM DTT (Sigma) in 50 mM TEA, 2 mM MgCl2, 0.1% BSA (fraction V), 0.005% Brij®, pH 7.5] are added. The enzyme reaction is started by adding 20 μl of substrate solution [1.25 mM guanosine 5′-triphosphate (Sigma) in 50 mM TEA, 2 mM MgCl2, 0.1% BSA (fraction V), 0.005% Brij®, pH 7.5] and measured continuously in a luminometer. The extent of the stimulation by the substance to be tested can be determined relative to the signal of the unstimulated reaction.
The activation of heme-free guanylate cyclase is examined by addition of 25 μM of 1H-1,2,4-oxadiazolo[4,3-a]quinoxalin-1-one (ODQ) to the enzyme solution and subsequent incubation for 30 minutes and compared to the stimulation of the native enzyme.

A further assay deals with saphenous artery. Description: Vasorelaxant effect in vitro (phenylephrine-contracted artery rings). Also noted: species or system Rabbits. The following applies: Oryctolagus cuniculus; concentration reducing phenylephrine-induced contraction of rabbit saphenous artery rings by 50%. The method, then:
Rabbits are anesthetized and sacrificed by intravenous injection of thiopental sodium (about 50 mg/kg) and exsanguinated. The saphenous artery is removed and divided into rings 3 mm wide. The rings are mounted singly on in each case a pair of triangular hooks open at the end and made of 0.3 mm-thick special wire (Remanium®). Each ring is placed under an initial tension in 5 ml organ baths with Krebs-Henseleit solution which is at 37° C., is gassed with carbogen and has the following composition: NaCl 119 mM; KCl 4.8 mM; CaCl2×2 H2O 1 mM; MgSO4×7 H2O 1.4 mM; KH2PO4 1.2 mM; NaHCO3 25 mM; glucose 10 mM; bovine serum albumin 0.001%. The force of contraction is detected with Statham UC2 cells, amplified and digitized via A/D converters (DAS-1802 HC, Keithley Instruments, Munich) and recorded in parallel on chart recorders. Contractions are induced by addition of phenylephrine.
After several (generally 4) control cycles, the substance to be investigated is added in each further run in increasing dosage, and the level of the contraction achieved under the influence of the test substance is compared with the level of the contraction reached in the last preceding run. The concentration necessary to reduce the contraction reached in the preceding control by 50% is calculated from this (IC50). The standard application volume is 5 μl. The proportion of DMSO in the bath solution corresponds to 0.1%.

The next assay deals with T2, sGC (Rattus norvegicus, UniProt P20595).
T2 construct: expressed in transfected cells; host or cells: CHO reporter cell line
T2 sequence (P20595 1-619): T1 sequence (P20595 1-619)
T2 sequence (P19686 1-690 partner): T1 sequence (P19686 1-690 partner)
Nature of the assay: sGC-activating activity in the CHO reporter cell in vitro. In kind it is cell-based. Here is the method:
The cellular action of the compounds according to the invention is determined at a recombinant guanylate cyclase reporter cell line, as described in F. Wunder et al., Anal. Biochem. 339, 104-112 (2005).

A further assay deals with T3, Heme-containing sGC (Rattus norvegicus, UniProt P20595).
T3 construct: made in house; host or cells: baculovirus/Sf9 insect cells
T3 sequence (P20595 1-619): T1 sequence (P20595 1-619)
T3 sequence (P19686 1-690 partner): T1 sequence (P19686 1-690 partner)
Nature of the assay: Stimulation of recombinant soluble guanylate cyclase in vitro, heme-containing enzyme. In kind it is biochemical. As to conditions: 0 μM Example 1. From the text: Hoenicka, E. M. Becker, H. Apeler, T. Sirichoke, H. Schroeder, R. Gerzer and J.-P. Stasch, “Purified soluble guanylyl cyclase expressed in a baculovirus/Sf9 system: Stimulation by YC-1, nitric oxide, and carbon oxide”, J. Mol. Med. 77 (1999), 14-23. The heme-free guanylate cyclase is obtained by adding Tween 20 to the sample buffer (0.5% in the final concentration).
The activation of sGC by a test substance is reported as n-fold stimulation of the basal activity.

Consider `O=C(NCCCCC1(C(=O)O)CC1)C(c1ccc(Cn2nc(-c3ccccc3)ccc2=O)cc1)C1CCCC1` (stereo not drawn) [Example 20], for which, in assay [1], the “MEC (minimum effective concentration), activating action at the sGC enzyme” value (from here on “MEC … at the sGC enzyme”) is 13 nM and the EC50 amounted to 650 nM. For the same molecule, half-maximal inhibition in the assay with saphenous artery (IC50) required 70 nM. Further, the “MEC (minimum effective concentration), sGC-activating activity in the CHO reporter cell” value (from here on “MEC … in the CHO reporter cell”) at sGC turned out to be 3 nM.
Consider `O=C(NC/C=C/CC1(C(=O)O)CC1)C(c1ccc(CN2N=C(c3ccccc3)OCC2=O)cc1)C1CCCC1` (single isomer, unassigned; (-)) [Example 15], for which the “MEC … in the CHO reporter cell” value at sGC is 20 nM.
As for `CCN(CC)[N+]([O-])=NO` [DEA/NO, 2-(N,N-diethylamino)diazenolate 2-oxide, reference compound], on Heme-containing sGC (0.1 μM DEA/NO), the “Stimulation (n-fold) of heme-containing sGC by DEA/NO alone” value is given as 22.2 n-fold.
As to `CC(CCCCNC(=O)C(c1ccc(CN2N=C(c3ccccc3)OCC2=O)cc1)C1CCCC1)C(=O)O` (single isomer, unassigned; (+)) [Example 10, (+)-6-{[2-cyclopentyl-2-{4-[(5-oxo-2-phenyl-5,6-dihydro-4H-1,3,4-oxadiazin-4-yl)methyl]phenyl}-acetyl]amino}-2-methylhexanoic acid], the “MEC … in the CHO reporter cell” value at sGC came to 100 nM.
Consider `CCC(C)C(C(=O)NCCCCC1(C(=O)O)CC1)c1ccc(CN2N=C(c3ccccc3)OCC2=O)cc1` (single isomer, unassigned; (+)) [Example 5, (+)-1-(4-{[3-methyl-2-{4-[(5-oxo-2-phenyl-5,6-dihydro-4H-1,3,4-oxadiazin-4-yl)methyl]phenyl}-pentanoyl]amino}butyl)cyclopropanecarboxylic acid], for which, in assay [1], the “MEC … at the sGC enzyme” value was determined as 58 nM and the EC50 was determined as 1500 nM. The 50% inhibitory concentration (IC50) (usually the point on the concentration scale where inhibition reaches its midpoint) with saphenous artery was found to be 297 nM. For the same molecule, the “MEC … in the CHO reporter cell” value on sGC was 6.5 nM.
On to `O=C(O)CC1(CCCNC(=O)C(c2ccc(CN3N=C(c4ccccc4)OCC3=O)cc2)C2CCCC2)CC1` (stereo not drawn) [Example 18, (1-{3-[(Cyclopentyl{4-[(5-oxo-2-phenyl-5,6-dihydro-4H-1,3,4-oxadiazin-4-yl)methyl]phenyl}-acetyl)amino]propyl}cyclopropyl)acetic Acid], for which, on sGC, the “MEC … in the CHO reporter cell” value is recorded as 30 nM.
Consider `O=C(O)CCCCCNC(=O)C(c1ccc(CN2N=C(c3ccccc3)OCC2=O)cc1)C1CCCC1` (stereo not drawn) [Example 19, 6-[(Cyclopentyl{4-[(5-oxo-2-phenyl-5,6-dihydro-4H-1,3,4-oxadiazin-4-yl)methyl]phenyl}acetyl)-amino]hexanoic Acid], for which, on sGC, the “MEC … in the CHO reporter cell” value amounted to 100 nM.
As for `O=c1onc2cnc3ccccc3n12` [ODQ, 1H-1,2,4-oxadiazolo-(4,3a)-quinoxalin-1-one, reference compound], the “Stimulation (n-fold) of heme-containing sGC by ODQ alone” value on Heme-containing sGC (10 μM ODQ) is recorded as 3.0 n-fold.
As for `CC(C(C(=O)NCCCCC1(C(=O)O)CC1)c1ccc(CN2N=C(c3ccccc3)OCC2=O)cc1)C(F)(F)F` (stereo not drawn) [Example 24, 1-{4-[(4,4,4-trifluoro-3-methyl-2-{4-[(5-oxo-2-phenyl-5,6-dihydro-4H-1,3,4-oxadiazin-4-yl)methyl]-phenyl}-butanoyl)amino]butyl}cyclopropanecarboxylic acid], in assay [1], the “MEC … at the sGC enzyme” value was 5.5 nM and the EC50 came to 184 nM. Besides, the “MEC … in the CHO reporter cell” value on sGC came to 1 nM.
In the case of `CC(CCCCNC(=O)C(c1ccc(CN2N=C(c3ccccc3)OCC2=O)cc1)C1CCCC1)C(=O)O` (single isomer, unassigned; (+)) [Example 11, (+)-6-{[2-cyclopentyl-2-{4-[(5-oxo-2-phenyl-5,6-dihydro-4H-1,3,4-oxadiazin-4-yl)methyl]phenyl}-acetyl]amino}-2-methylhexanoic acid], the “MEC … in the CHO reporter cell” value on sGC was found to be 100 nM.
